Reference: the supplement of paper PMC10326909

Assay: ESI positive response factor (isotope-corrected peak area per molar concentration) in SFC/ESI/HRMS (area units per M); higher = higher ionization efficiency
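Also: standards in acetonitrile/water run in triplicate on a zwitterionic HILIC column, CO2–methanol gradient containing 20 mmol/L ammonium acetate, postcolumn makeup flow, Orbitrap full-scan detection.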

Compound	ESI positive response factor (0.061 µM)	ESI positive response factor (0.122 µM)	ESI positive response factor (0.244 µM)	ESI positive response factor (0.0122 µM)	ESI positive response factor (0.0244 µM)	ESI positive response factor (0.035 µM)	ESI positive response factor (0.0875 µM)	ESI positive response factor (0.175 µM)	ESI positive response factor (0.35 µM)	further results
N[C@@H](Cc1ccc(O)cc1)C(=O)O [L-Tyrosine]	2.58e+15	2.67e+15	3.05e+15							
Nc1cccc2c1CN(C1CCC(=O)NC1=O)C2=O (centres undefined) [Lenalidomid]			4.65e+14							ESI positive response factor (0.61 µM): 5.58e+14; ESI positive response factor (1.22 µM): 7.56e+14
CON(C)C(=O)Nc1ccc(Cl)c(Cl)c1 [Linuron]	4.29e+16	4.05e+16	4.46e+16	4.3e+16	3.86e+16					
NCCCC[C@H](N[C@@H](CCc1ccccc1)C(=O)O)C(=O)N1CCC[C@H]1C(=O)O [Lisinopril]	1.89e+16	1.43e+16	1.58e+16	7.7e+15	1.4e+16					
Nc1nc(N)nc(N)n1 [Melamine]	2.07e+16	1.7e+16	1.82e+16		1.84e+16					
Cc1cccc(C)c1N(Cn1cccn1)C(=O)CCl [Metazachlor]	3.05e+17	2.62e+17	2.65e+17	3.21e+17	3.32e+17					
CC1(C)CCC(Cc2ccc(Cl)cc2)C1(O)Cn1cncn1 (centres undefined) [Metconazol]	3.16e+17			3.22e+17	3.52e+17					
CN(C)C(=N)N=C(N)N [Metformin]	9.71e+16	9.59e+16	1.01e+17		4.62e+16					
CC(=O)C1=C(C)C2CC3(C1)C(C)CCC3C2(C)C (centres undefined) [Methyl cedryl ketone]		1.43e+16	1.56e+16							ESI positive response factor (0.61 µM): 1.43e+16; ESI positive response factor (1.22 µM): 1.44e+16
C[N+]1(C)[C@H]2CC(OC(=O)C(CO)c3ccccc3)C[C@H]1[C@H]1O[C@H]12 (some centres undefined) [Methyl scopolamine]						8.31e+17	7.49e+17			ESI positive response factor (0.0175 µM): 6.75e+17
Cn1sccc1=O [Methylisothiazolinone]										ESI positive response factor (0.61 µM): 9.58e+14; ESI positive response factor (1.22 µM): 1.18e+15
CON(C)C(=O)Nc1ccc(Br)cc1 [Metobromuron]	2.07e+17	1.95e+17		2.18e+17	2.29e+17					
CCc1cccc(C)c1N(C(=O)CCl)C(C)COC (centres undefined) [Metolachlor]	5.13e+17			4.41e+17	5.34e+17					
CSc1nnc(C(C)(C)C)c(=O)n1N [Metribuzin]	1.69e+17	1.54e+17	1.52e+17	2.83e+17	2.15e+17					
OCCN1C[C@H](O)[C@@H](O)[C@H](O)[C@H]1CO [Miglitol]						5.69e+15	1e+16	1.1e+16	1.34e+16	ESI positive response factor (0.875 µM): 1.42e+16; ESI positive response factor (1.75 µM): 1.46e+16
N=c1nc(N2CCCCC2)cc(N)n1O [Minoxidil]	1.77e+17	1.69e+17	1.72e+17	1.59e+17	1.78e+17					
CCSC(=O)N1CCCCCC1 [Molinate]	1.56e+16	1.94e+16	2e+16							ESI positive response factor (0.61 µM): 1.59e+16; ESI positive response factor (1.22 µM): 1.93e+16
CN(C)C(=O)Nc1ccc(Cl)cc1 [Monuron]	3.31e+16	3.07e+16	3.26e+16	2.43e+16	2.85e+16					
N=C(N=C(N)N)N1CCOCC1 [Moroxydine]	1.94e+17	1.92e+17	1.97e+17	1.51e+17	1.7e+17					

Compound	ESI positive response factor (0.061 µM)	ESI positive response factor (0.122 µM)	ESI positive response factor (0.244 µM)	ESI positive response factor (0.0122 µM)	ESI positive response factor (0.0244 µM)	ESI positive response factor (0.035 µM)	ESI positive response factor (0.0875 µM)	ESI positive response factor (0.175 µM)	ESI positive response factor (0.35 µM)	further results
CC(=O)NCCNC(C)=O [N,N'-Ethylenebisacetamide]						4.39e+16	4.04e+16	3.9e+16	3.89e+16	
O=C1NCCCN1 [N,N?-Trimethyleneurea]	3.96e+16			2.53e+16	3.89e+16					
CC(=O)NCCCCC(N)C(=O)O [N?-Acetyl-L-lysine]									8.93e+15	ESI positive response factor (0.875 µM): 9.29e+15; ESI positive response factor (1.75 µM): 9.24e+15
COc1ccc2cc(C(C)C(=O)O)ccc2c1 (centres undefined) [Naproxen]						7.47e+15	7.04e+15	6.98e+15	6.96e+15	
CNC(=O)CSP(=O)(OC)OC [Omethoate]						3.37e+16	3.65e+16	3.18e+16	3.93e+16	ESI positive response factor (0.0175 µM): 2.18e+16
COCC(=O)N(c1c(C)cccc1C)N1CCOC1=O [Oxadixyl]						1.43e+17	1.57e+17	1.23e+17	1.48e+17	ESI positive response factor (0.0175 µM): 1.33e+17
COc1ccc(C(=O)c2ccccc2)c(O)c1 [Oxybenzone]						1.88e+17	1.67e+17			ESI positive response factor (0.0175 µM): 1.73e+17
O=c1nc2[nH][nH]cc-2c(=O)[nH]1 [Oxypurinol]										ESI positive response factor (0.875 µM): 5.5e+14; ESI positive response factor (1.75 µM): 4.78e+14
CC(C)(CO)[C@@H](O)C(=O)NCCCO [Panthenol]	6.32e+16	6.16e+16	6.31e+16	5.93e+16	6.23e+16					
NC(N)=NC(N)=NCCc1ccccc1 [Phenformin]						3.42e+17	3.34e+17	3.21e+17	3.4e+17	ESI positive response factor (0.0175 µM): 2.9e+17
COC=C(C(=O)OC)c1ccccc1COc1cccc(C(F)(F)F)n1 [Picoxystrobin]						2.82e+17	2.61e+17	2.25e+17	2.47e+17	ESI positive response factor (0.0175 µM): 2.81e+17
NC(=O)C1(N2CCCCC2)CCN(CCCC(=O)c2ccc(F)cc2)CC1 [Pipamperone]						5.01e+17	5.44e+17	5.09e+17		ESI positive response factor (0.0175 µM): 4.81e+17
CC(C)C[C@H](CN)CC(=O)O [Pregabalin]							1.96e+16	1.55e+16	1.8e+16	ESI positive response factor (0.875 µM): 1.58e+16; ESI positive response factor (1.75 µM): 1.57e+16
CCC1(c2ccccc2)C(=O)NCNC1=O [Primidone]						1.09e+17	1.15e+17	9.69e+16	1.08e+17	ESI positive response factor (0.0175 µM): 8.94e+16
COC(=O)N(OC)c1ccccc1COc1ccn(-c2ccc(Cl)cc2)n1 [Pyraclostrobin]						5.71e+17	5.45e+17	4.73e+17	5.43e+17	ESI positive response factor (0.0175 µM): 6.62e+17
Fc1ccc(Oc2ccnc3cc(Cl)cc(Cl)c23)cc1 [Quinoxyfen]						1.08e+18	9.74e+17	9.43e+17		ESI positive response factor (0.0175 µM): 9.87e+17
Cc1cc2nc3c(=O)[nH]c(=O)nc-3n(CC(O)C(O)C(O)CO)c2cc1C (centres undefined) [Riboflavin]								2.66e+15	3.31e+15	ESI positive response factor (0.875 µM): 3.41e+15; ESI positive response factor (1.75 µM): 3.53e+15
O=C(O)C(c1ccccc1)C1CCCCN1 (centres undefined) [Ritalinic acid]						1.26e+17	1.24e+17	1.12e+17	1.31e+17	ESI positive response factor (0.875 µM): 1.17e+17; ESI positive response factor (1.75 µM): 1.26e+17
CC(C)NCC(O)c1ccc(NS(C)(=O)=O)cc1 (centres undefined) [Sotalol]						2.68e+17	2.59e+17			ESI positive response factor (0.0175 µM): 2.28e+17
